Results on 27 molecules are retold here after patent US20260265265A1, “NOVEL BENZIMIDAZOLONE DERIVATIVE COMPOUND AS AUTOTAXIN INHIBITOR” (LG CHEM, LTD., priority 2023, published 2026).

In the test the target is T1, Recombinant Human ENPP-2/Autotaxin (Homo sapiens, UniProt Q13822).
T1 construct: purchased R&D systems 5255-EN
Briefly: LysoPLD activity measurement (autotaxin enzyme inhibition, choline release, TOOS reagent). Particulars: LysoPLD inhibitory activity; substrate 14:0 LysoPC; absorbance at 555 nm. The format is biochemical. Here is the method:
Such a measurement method is a method of measuring the amount of choline, which is a reaction product in an autotaxin enzyme reaction, using a TOOS reagent. Depending on the activity of the autotaxin inhibitor, the amount of choline produced as a reaction product varies, which affects the final absorbance.
After 30 min, 14:0 LysoPC of the substrate diluted to a concentration of 300 μM with the enzyme reaction buffer solution was dispensed into each well by 50 μL and allowed to stand at 37° C. for 90 minutes. At this time, negative control wells were dispensed with 1% DMSO, substrate, and autotaxin instead of the compound, and positive control wells were dispensed with 1% DMSO and substrate.

`O=C(O)c1cccc(C2(n3c(=O)n(-c4ccc(-c5nnc(C6CCCCC6)o5)cc4)c4cc(Cl)ccc43)CC2)c1` [Example 265, 3-(1-(5-chloro-3-(4-(5-cyclohexyl-1,3,4-oxadiazol-2-yl)phenyl)-2-oxo-2,3-dihydro-1H-benzo[d]imidazol-1-yl)cyclopropyl)benzoic acid]: the 50% inhibitory concentration (IC50) fell in the range of 10 to 100 nM. For the molecule `CN(C)C(=O)c1ccc(-n2c(=O)n(C3(c4cccc(C(=O)O)c4)CC3)c3ccc(Cl)cc32)cc1` [Example 71, 3-(1-(5-chloro-3-(4-(dimethylcarbamoyl)phenyl)-2-oxo-2,3-dihydro-1H-benzo[d]imidazol-1-yl)cyclopropyl)benzoic acid], the IC50 was under 10 nM. For the molecule `O=C(O)c1cccc(C2(n3c(=O)n(-c4ccc(N5CCOCC5)cc4)c4cc(C(F)(F)F)ccc43)CC2)c1` [Example 207, 3-(1-(3-(4-morpholinophenyl)-2-oxo-5-(trifluoromethyl)-2,3-dihydro-1H-benzo[d]imidazol-1-yl)cyclopropyl)benzoic acid], the IC50 is under 10 nM. Under `O=C(O)c1cccc(C2(n3c(=O)n(-c4ccc(C(=O)N5CCCC5)cc4)c4cc(Cl)ccc43)CC2)c1F` [Example 67, 3-(1-(5-chloro-2-oxo-3-(4-(pyrrolidine-1-carbonyl)phenyl)-2,3-dihydro-1H-benzo[d]imidazol-1-yl)cyclopropyl)-2-fluorobenzoic acid] stands under 10 nM; under `O=C(O)c1cccc(Cn2c(=O)n(-c3ccc(C4=CCOCC4)cc3)c3cc(Cl)ccc32)c1` [Example 104, 3-((5-chloro-3-(4-(3,6-dihydro-2H-pyran-4-yl)phenyl)-2-oxo-2,3-dihydro-1H-benzo[d]imidazol-1-yl)methyl)benzoic acid], 10 to 100 nM. For `O=C(O)c1cccc(C2(n3c(=O)n(-c4ccc(C(=O)N5CC(O)C5)cc4)c4cc(Cl)ccc43)CC2)c1F` [Example 134, 3-(1-(5-chloro-3-(4-(3-hydroxyazetidine-1-carbonyl)phenyl)-2-oxo-2,3-dihydro-1H-benzo[d]imidazol-1-yl)cyclopropyl)-2-fluorobenzoic acid], the IC50 is under 10 nM.

As for `O=C(O)c1cccc(C2(n3c(=O)n(-c4ccc(N5CC6CC5CO6)cc4)c4cc(Cl)ccc43)CC2)c1` (stereo not drawn) [Example 181, 3-(1-(3-(4-(2-oxa-5-azabicyclo[2.2.1]heptan-5-yl)phenyl)-5-chloro-2-oxo-2,3-dihydro-1H-benzo[d]imidazol-1-yl)cyclopropyl)benzoic acid], the IC50 was under 10 nM. For `O=C(O)c1cccc(Cn2c(=O)n(-c3ccc(NS(=O)(=O)CC(F)(F)F)cc3)c3cc(Cl)ccc32)c1` [Example 26, 3-((5-chloro-2-oxo-3-(4-((2,2,2-trifluoroethyl)sulfonamido)phenyl)-2,3-dihydro-1H-benzo[d]imidazol-1-yl)methyl)benzoic acid], the IC50 is 100 to 1000 nM. Then `C[C@H]1COCCN1C(=O)c1ccc(-n2c(=O)n(C3(c4cccc(C(=O)O)c4F)CC3)c3ccc(Cl)cc32)cc1` [Example 136, (S)-3-(1-(5-chloro-3-(4-(3-methylmorpholine-4-carbonyl)phenyl)-2-oxo-2,3-dihydro-1H-benzo[d]imidazol-1-yl)cyclopropyl)-2-fluorobenzoic acid], with under 10 nM; and `O=C(O)c1cccc(Cn2c(=O)n(-c3ccc(C4CCN(C(=O)C5CC5)CC4)cc3)c3cc(Cl)ccc32)c1` [Example 100, 3-((5-chloro-3-(4-(1-(cyclopropanecarbonyl)piperidin-4-yl)phenyl)-2-oxo-2,3-dihydro-1H-benzo[d]imidazol-1-yl)methyl)benzoic acid], with 10 to 100 nM; and `O=C(O)c1cc(Cn2c(=O)n(-c3ccccc3)c3cc(Cl)ccc32)ccc1F` [Example 35, 5-((5-chloro-2-oxo-3-phenyl-2,3-dihydro-1H-benzo[d]imidazol-1-yl)methyl)-2-fluorobenzoic acid], with 100 to 1000 nM. For the molecule `O=C(O)c1ccc(Cn2c(=O)n(-c3ccc(N4CCOCC4)cc3)c3c(F)c(Cl)ccc32)cc1` [Example 125, 4-((5-chloro-4-fluoro-3-(4-morpholinophenyl)-2-oxo-2,3-dihydro-1H-benzo[d]imidazol-1-yl)methyl)benzoic acid], the IC50 lay within 100 to 1000 nM. Under `CN(C)S(=O)(=O)c1ccc(-n2c(=O)n(C3(c4cccc(C(=O)O)c4)CC3)c3ccc(Cl)cc32)cc1` [Example 210, 3-(1-(5-chloro-3-(4-(N,N-dimethylsulfamoyl)phenyl)-2-oxo-2,3-dihydro-1H-benzo[d]imidazol-1-yl)cyclopropyl)benzoic acid] stands under 10 nM; under `O=C(O)c1cccc(Cn2c(=O)n(-c3ccc(N4CCN(C(=O)C5CCC(F)(F)CC5)CC4)cc3)c3cc(Cl)ccc32)c1F` [Example 143, 3-((5-chloro-3-(4-(4-(4,4-difluorocyclohexane-1-carbonyl)piperazin-1-yl)phenyl)-2-oxo-2,3-dihydro-1H-benzo[d]imidazol-1-yl)methyl)-2-fluorobenzoic acid], 10 to 100 nM. Then `O=C(O)c1cc(F)cc(C2(n3c(=O)n(-c4ccc(N5CCC(F)(F)CC5)cc4)c4cc(Cl)ccc43)CC2)c1` [Example 197, 3-(1-(5-chloro-3-(4-(4,4-difluoropiperidin-1-yl)phenyl)-2-oxo-2,3-dihydro-1H-benzo[d]imidazol-1-yl)cyclopropyl)-5-fluorobenzoic acid], with under 10 nM; and `CN(C)C(=O)Cc1ccc(-n2c(=O)n(C3(c4cc(F)cc(C(=O)O)c4)CC3)c3ccc(Cl)cc32)cc1` [Example 189, 3-(1-(5-chloro-3-(4-(2-(dimethylamino)-2-oxoethyl)phenyl)-2-oxo-2,3-dihydro-1H-benzo[d]imidazol-1-yl)cyclopropyl)-5-fluorobenzoic acid], with under 10 nM; and `O=C(O)c1cc(F)cc(C2(n3c(=O)n(-c4ccc(N5CC6(CCOCC6)C5)cc4)c4cc(Cl)ccc43)CC2)c1` [Example 193, 3-(1-(3-(4-(7-oxa-2-azaspiro[3.5]nonan-2-yl)phenyl)-5-chloro-2-oxo-2,3-dihydro-1H-benzo[d]imidazol-1-yl)cyclopropyl)-5-fluorobenzoic acid], with under 10 nM.

As to `O=C(O)c1cc(F)cc(C2(n3c(=O)n(-c4ccc(C(=O)N5CCCC5)cc4)c4cc(Cl)cnc43)CC2)c1` [Example 276, 3-(1-(6-chloro-2-oxo-1-(4-(pyrrolidine-1-carbonyl)phenyl)-1,2-dihydro-3H-imidazo[4,5-b]pyridin-3-yl)cyclopropyl)-5-fluorobenzoic acid], the IC50 is under 10 nM. Under `O=C1COc2cc(-n3c(=O)n(C4(c5cc(F)cc(C(=O)O)c5)CC4)c4ccc(Cl)cc43)ccc2N1` [Example 254, 3-(1-(5-chloro-2-oxo-3-(3-oxo-3,4-dihydro-2H-benzo[b][1,4]oxazin-7-yl)-2,3-dihydro-1H-benzo[d]imidazol-1-yl)cyclopropyl)-5-fluorobenzoic acid] stands under 10 nM; under `Cc1ccc2c(n1)n(-c1ccc(N(C)C)cc1)c(=O)n2Cc1cccc(C(=O)O)c1` [Example 168, 3-((3-(4-(dimethylamino)phenyl)-5-methyl-2-oxo-2,3-dihydro-1H-imidazo[4,5-b]pyridin-1-yl)methyl)benzoic acid], 100 to 1000 nM; under `O=C(O)c1cccc(C2(n3c(=O)n(-c4ccc(-c5nnc(C6CCCCCC6)o5)cc4)c4cc(Cl)ccc43)CC2)c1` [Example 264, 3-(1-(5-chloro-3-(4-(5-cycloheptyl-1,3,4-oxadiazol-2-yl)phenyl)-2-oxo-2,3-dihydro-1H-benzo[d]imidazol-1-yl)cyclopropyl)benzoic acid], 10 to 100 nM.

Regarding `O=C(O)c1cccc(C2(n3c(=O)n(-c4ccc(C5CCN(C6COC6)CC5)cc4)c4cc(Cl)ccc43)CC2)c1` [Example 260, 3-(1-(5-chloro-3-(4-(1-(oxetan-3-yl)piperidin-4-yl)phenyl)-2-oxo-2,3-dihydro-1H-benzo[d]imidazol-1-yl)cyclopropyl)benzoic acid], the IC50 is under 10 nM. As to `CN(C)c1ccc(-n2c(=O)n(C3(c4cccc(C(=O)O)c4)CCC3)c3ccc(Cl)cc32)cc1` [Example 156, 3-(1-(5-chloro-3-(4-(dimethylamino)phenyl)-2-oxo-2,3-dihydro-1H-benzo[d]imidazol-1-yl)cyclobutyl)benzoic acid], the IC50 was in the range of 10 to 100 nM. On to `CN(C)C(=O)c1ccc(-n2c(=O)n(Cc3cccc(C(=O)O)c3)c3c(F)cc(Cl)cc32)cc1` [Example 54, 3-((5-chloro-3-(4-(dimethylcarbamoyl)phenyl)-7-fluoro-2-oxo-2,3-dihydro-1H-benzo[d]imidazol-1-yl)methyl)benzoic acid], for which the IC50 was under 10 nM. As to `O=C(O)c1cccc(C2(n3c(=O)n(-c4ccc(C(=O)N5CC6(CCOCC6)C5)cc4)c4cc(Cl)ccc43)CC2)c1F` [Example 107, 3-(1-(3-(4-(7-oxa-2-azaspiro[3.5]nonane-2-carbonyl)phenyl)-5-chloro-2-oxo-2,3-dihydro-1H-benzo[d]imidazol-1-yl)cyclopropyl)-2-fluorobenzoic acid], the IC50 was under 10 nM. Turning to `CC(C)(O)c1ccc(-n2c(=O)n(C3(c4cccc(C(=O)O)c4)CC3)c3ccc(Cl)cc32)cc1` [Example 246, 3-(1-(5-chloro-3-(4-(2-hydroxypropane-2-yl)phenyl)-2-oxo-2,3-dihydro-1H-benzo[d]imidazol-1-yl)cyclopropyl)benzoic acid], the IC50 is under 10 nM.

`CSc1ccc(-n2c(=O)n(Cc3cccc(C(=O)O)c3F)c3ccc(Cl)cc32)cc1` [Example 55, 3-((5-chloro-3-(4-(methylthio)phenyl)-2-oxo-2,3-dihydro-1H-benzo[d]imidazol-1-yl)methyl)-2-fluorobenzoic acid]: the IC50 lay within 10 to 100 nM.
